Experimental data taken from ChEMBL document CHEMBL1157539, “Thousands of chemical starting points for antimalarial lead identification” (Nature, 2010).
“And” between values parts separate entries of the source, which are not always exact repeats. Equal entries are not always repeated.

Test system: Plasmodium falciparum
Test: GSK_TCMDC: Inhibition of Plasmodium falciparum 3D7 in whole erythrocytes, using parasite LDH activity as an index of growth.
Type: functional, organism-based

Row | Compound | XC50 (Plasmodium falciparum, 3D7) | XC50
1 | O=C(NCCCCN1CCC(c2ccc3c(c2OCc2ccncc2)CCCC3)CC1)c1ccc(-c2ccc(C(F)(F)F)cc2)cc1 | 0.168 µM | –
2 | CO/C(=C\C=C\c1cc2cc(Cl)c(Cl)cc2[nH]1)C(=O)NCC(C)(C)CN(C)C | 1.16 µM | –
3 | CN(C)CCN(Cc1ccccc1-c1ccc(CNCCc2ccccc2)cc1)C(=O)c1ccccc1 | 1.7 µM | –
4 | COc1ccc(Nc2nc(C)cc(NCc3ccc(-c4c(C)noc4C)cc3)n2)cc1 | 0.844 µM | –
5 | CCCCCN1CCCC1CNS(=O)(=O)c1cccc(C(=O)Nc2cccc(C#N)c2)c1 (stereo not given) | 0.978 µM | –
6 | CCn1cc(C=C2Oc3c(ccc(O)c3CN3CCCCC3)C2=O)c2ccccc21 | 0.281 µM | –
7 | CNC(=O)CNC(=O)COc1cccc2ccccc12 | 0.226 µM | –
8 | CCOc1cc(Cc2cnc(N)nc2N)cc(OCC)c1-n1cccc1 [EPIROPRIM] | 0.761 µM | –
9 | Cc1cccc2nc(-c3ccc(-c4cccc(C(=O)N5CCCCC5C(C)O)c4)s3)[nH]c12 (stereo not given) | 0.636 µM | –
10 | O=C(Nc1ccc(-c2cccc(-c3nc4cc(C(F)(F)F)ccc4[nH]3)c2)cc1)c1ccc(=O)[nH]n1 | 1.07 µM | –
11 | Cc1cccc2nc(-c3cccc(-c4ccc(NC(=O)C(=O)c5cccn5C)cc4)c3)[nH]c12 | 0.375 µM | –
12 | CC(Oc1cccc(Cl)c1)C(=O)N1CCc2ccccc21 (stereo not given) | 0.512 µM | –
13 | Clc1ccccc1/C=C/c1cncnc1Nc1ccc2[nH]c(Cc3ccccc3)nc2c1 | 0.915 µM | –
14 | CC1CN(Cc2ccc(C#N)cc2)CCN1c1ccc(NC(=O)c2cccs2)cc1 (stereo not given) | 0.809 µM | –
15 | Cc1cccc(-n2nc(C)c3c2NC(=O)CC3C(=O)c2ccc(Cl)s2)c1 (stereo not given) | 0.466 µM | –
16 | COCCNCc1nc(-c2ccc3c(Nc4ccc(Cl)cc4F)ccnc3c2)cs1 | 1.08 µM | –
17 | O=C(Nc1cccc(C(F)(F)F)c1)Nc1nc2ccc([N+](=O)[O-])cc2s1 | 0.687 µM | –
18 | O=C(Nc1ccccc1)N(Cc1cccc(-c2cccc(CNCCc3ccccc3)c2)c1)C1CCN(Cc2ccccc2)CC1 | 0.307 µM | –
19 | COc1ccc(OC)c2c1CCN(CCN1CCC(C(=O)Nc3ccc(C(=O)Nc4ccc(Cl)cc4)cc3)CC1)C2 | 0.582 µM | –
20 | Cc1cccc2nc(-c3cccc(-c4cccc(C(=O)N5CCCCC5CN5CCC(O)C5)c4)c3)[nH]c12 (stereo not given) | 0.463 µM | –
21 | CC(C)=CC1C(C(=O)n2c(=N)[nH]c3ccccc32)C1(C)C (stereo not given) | 0.193 µM | –
22 | CN(C)S(=O)(=O)c1ccc(Nc2nc(NCCC3C=NC=N3)nc3cc[nH]c(=O)c23)cc1 (stereo not given) | 0.929 µM | –
23 | CCOc1cc(C)ccc1C1CCN(CCCCNC(=O)c2nc(-c3ccc(C(F)(F)F)cc3)[nH]c2C)CC1 | 0.729 µM | –
24 | OCCCCCCNc1ccnc2[nH]c3ccc(I)cc3c12 | 1.07 µM | –
25 | COc1ccc2ncc(F)c([C@@H](O)CN3CCC(NCc4cc(C#N)c5c(c4)CCO5)CC3)c2n1 | 0.889 µM | –

Row | Compound | XC50 (Plasmodium falciparum, 3D7) | XC50
26 | COc1ccc2nccc([C@H](O)CN3CCC(NCc4nc5cccc(F)c5[nH]4)CC3)c2c1 | 0.705 µM | –
27 | Cc1cc(N[C@@H](CC(C)C)C(=O)NCCOc2ccccc2)nc(NCC2CCCCC2)n1 | 0.972 µM | –
28 | COc1ccccc1CC1CCCN(C2CCC(NC(=O)c3cc4ccccc4[nH]3)CC2)C1 (stereo not given) | 0.842 µM | –
29 | Cc1nc(-c2cccc(Nc3nccc(NCC(O)c4ccccc4C(F)(F)F)n3)c2)cs1 (stereo not given) | 0.834 µM | –
30 | Cn1ccnc1Sc1ncccc1[N+](=O)[O-] | 0.968 µM | –
31 | c1cncc(NCc2ccc(-c3cc4ccncc4cc3OC3CCNCC3)s2)c1 | 0.981 µM | –
32 | N#Cc1ccc2[nH]cc(-c3cn4cc(SC5CCCC5)ccc4n3)c2c1 | 0.942 µM | –
33 | COc1ccc(NC(=O)/C=C/c2ccccc2Cl)cc1OCCN1CCC(c2nc3ccccc3[nH]2)CC1 | 0.858 µM | –
34 | CCCNc1ccc2nccc(CCN3CCC(NCc4ccc5c(c4)NC(=O)CS5)CC3)c2n1 | 0.58 µM | –
35 | COc1cc2ncnc(Nc3ccc(OCc4ccccc4Br)c(OC)c3)c2cc1OC | 0.427 µM | –
36 | CC(C)(C)c1ccc(C(=O)NC2CCC(CCN3CCc4ccc(S(C)(=O)=O)cc4CC3)CC2)cc1C(F)(F)F (stereo not given) | 1.22 µM | –
37 | Cc1[nH]c(C)c(-c2ccc(/C=C/c3ccccn3)cc2)c(=O)c1Cl | 0.516 µM | –
38 | CN(C)c1ccc(-c2ccc(C(=O)NC3CCN(Cc4ccccc4F)CC3)s2)cc1 | 1.4 µM | –
39 | CC(C)CNCc1cccc(-c2cccc(CNCCCN3CCN(C)CC3)c2)c1 | 1.18 µM | –
40 | Cc1cccc(NC(=O)N(Cc2cc3cc(C)cc(C)c3[nH]c2=O)C2CC2)c1 | 0.336 µM | –
41 | Cc1nc(C)c(-c2ccc(Oc3cccc(OC(F)(F)F)c3)cc2)c(O)c1Br | 0.0171 µM | –
42 | COc1ccc2nccc([C@@H](O)CN3CCC(NCc4ccc5cccc(O)c5n4)CC3)c2n1 | 0.912 µM | –
43 | CC(C)C(=O)NC(Nc1ccc([N+](=O)[O-])cc1)C(Cl)(Cl)Cl (stereo not given) | 0.835 µM | –
44 | O=C(NCc1ccccc1F)c1ccc(N2CCC(NCc3cccc(-n4cccn4)c3)CC2)cc1 | 1.73 µM | –
45 | Cc1ccc(-c2cc3nc4c(c(NCCCn5ccnc5)n3n2)CCC4)cc1 | 0.925 µM | –
46 | O=C(/C=C/c1ccccc1Cl)NC1CCC(CN2CCC(c3c[nH]c4ccncc34)CC2)CC1 (stereo not given) | 0.334 µM | –
47 | Cc1cc(OCCCN2CCC(NS(=O)(=O)c3ccc(C(F)(F)F)cc3)CC2)c2ccccc2n1 | 1.22 µM | –
48 | CCCCCCN1CCC(NCc2cccc([N+](=O)[O-])c2)CC1 | 0.668 µM | –
49 | COc1ccc2ncc(F)c(CCN3CC(O)C(CNCc4nc5c(cc4Cl)OCC(=O)N5)C3)c2n1 (stereo not given) | 0.83 µM | 1.28 µM and 0.954 µM
